Data: the NIST ThermoML archive (doi:10.1016/j.jct.2015.04.027)
Numbers after ± are expanded uncertainties.

test: xn = mol fraction of the nth substance listed; settings: 293.15 K; 100 kPa; Liquid; Falling or rolling sphere viscometry; x2 = 0

viscosity	SMILES
0.597 ± 0.013 mPa·s	CO [methanol] + CN(C)C(=[NH2+])N(C)C.c1c[n-]cn1
1.186 ± 0.025 mPa·s	CCO [ethanol] + CN(C)C(=[NH2+])N(C)C.c1c[n-]cn1
2.918 ± 0.062 mPa·s	CCCCO [butan-1-ol] + CN(C)C(=[NH2+])N(C)C.c1c[n-]cn1
2.217 ± 0.047 mPa·s	CCCO [propan-1-ol] + CN(C)C(=[NH2+])N(C)C.c1c[n-]cn1

same assay, conditions: 293.15 K; 100 kPa; Liquid; Vibrating tube method; x2 = 0

mass density	SMILES
791.35 ± 0.17 kg/m3	CO [methanol] + CN(C)C(=[NH2+])N(C)C.c1c[n-]cn1
789.51 ± 0.17 kg/m3	CCO [ethanol] + CN(C)C(=[NH2+])N(C)C.c1c[n-]cn1
809.72 ± 0.16 kg/m3	CCCCO [butan-1-ol] + CN(C)C(=[NH2+])N(C)C.c1c[n-]cn1
803.75 ± 0.16 kg/m3	CCCO [propan-1-ol] + CN(C)C(=[NH2+])N(C)C.c1c[n-]cn1

same assay, conditions: 298.15 K; 100 kPa; Liquid; Falling or rolling sphere viscometry; x2 = 0

viscosity	SMILES
0.559 ± 0.012 mPa·s	CO [methanol] + CN(C)C(=[NH2+])N(C)C.c1c[n-]cn1
1.083 ± 0.023 mPa·s	CCO [ethanol] + CN(C)C(=[NH2+])N(C)C.c1c[n-]cn1
2.566 ± 0.055 mPa·s	CCCCO [butan-1-ol] + CN(C)C(=[NH2+])N(C)C.c1c[n-]cn1
1.955 ± 0.042 mPa·s	CCCO [propan-1-ol] + CN(C)C(=[NH2+])N(C)C.c1c[n-]cn1

same assay, conditions: 298.15 K; 100 kPa; Liquid; Vibrating tube method; x2 = 0

mass density	SMILES
786.67 ± 0.18 kg/m3	CO [methanol] + CN(C)C(=[NH2+])N(C)C.c1c[n-]cn1
785.4 ± 0.17 kg/m3	CCO [ethanol] + CN(C)C(=[NH2+])N(C)C.c1c[n-]cn1
805.92 ± 0.16 kg/m3	CCCCO [butan-1-ol] + CN(C)C(=[NH2+])N(C)C.c1c[n-]cn1
799.71 ± 0.17 kg/m3	CCCO [propan-1-ol] + CN(C)C(=[NH2+])N(C)C.c1c[n-]cn1

same assay, conditions: 303.15 K; 100 kPa; Liquid; Falling or rolling sphere viscometry; x2 = 0

viscosity	SMILES
0.518 ± 0.011 mPa·s	CO [methanol] + CN(C)C(=[NH2+])N(C)C.c1c[n-]cn1
0.987 ± 0.021 mPa·s	CCO [ethanol] + CN(C)C(=[NH2+])N(C)C.c1c[n-]cn1
2.272 ± 0.049 mPa·s	CCCCO [butan-1-ol] + CN(C)C(=[NH2+])N(C)C.c1c[n-]cn1
1.736 ± 0.037 mPa·s	CCCO [propan-1-ol] + CN(C)C(=[NH2+])N(C)C.c1c[n-]cn1

same assay, conditions: 303.15 K; 100 kPa; Liquid; Vibrating tube method; x2 = 0

mass density	SMILES
781.94 ± 0.18 kg/m3	CO [methanol] + CN(C)C(=[NH2+])N(C)C.c1c[n-]cn1
780.83 ± 0.17 kg/m3	CCO [ethanol] + CN(C)C(=[NH2+])N(C)C.c1c[n-]cn1
802.08 ± 0.16 kg/m3	CCCCO [butan-1-ol] + CN(C)C(=[NH2+])N(C)C.c1c[n-]cn1
795.65 ± 0.17 kg/m3	CCCO [propan-1-ol] + CN(C)C(=[NH2+])N(C)C.c1c[n-]cn1

same assay, conditions: 308.15 K; 100 kPa; Liquid; Falling or rolling sphere viscometry; x2 = 0

viscosity	SMILES
0.493 ± 0.011 mPa·s	CO [methanol] + CN(C)C(=[NH2+])N(C)C.c1c[n-]cn1
0.903 ± 0.019 mPa·s	CCO [ethanol] + CN(C)C(=[NH2+])N(C)C.c1c[n-]cn1
2.024 ± 0.043 mPa·s	CCCCO [butan-1-ol] + CN(C)C(=[NH2+])N(C)C.c1c[n-]cn1
1.55 ± 0.033 mPa·s	CCCO [propan-1-ol] + CN(C)C(=[NH2+])N(C)C.c1c[n-]cn1

same assay, conditions: 308.15 K; 100 kPa; Liquid; Vibrating tube method; x2 = 0

mass density	SMILES
777.2 ± 0.18 kg/m3	CO [methanol] + CN(C)C(=[NH2+])N(C)C.c1c[n-]cn1
776.48 ± 0.17 kg/m3	CCO [ethanol] + CN(C)C(=[NH2+])N(C)C.c1c[n-]cn1
798.21 ± 0.16 kg/m3	CCCCO [butan-1-ol] + CN(C)C(=[NH2+])N(C)C.c1c[n-]cn1
791.56 ± 0.17 kg/m3	CCCO [propan-1-ol] + CN(C)C(=[NH2+])N(C)C.c1c[n-]cn1

same assay, conditions: 313.15 K; 100 kPa; Liquid; Falling or rolling sphere viscometry; x2 = 0

viscosity	SMILES
0.466 ± 0.01 mPa·s	CO [methanol] + CN(C)C(=[NH2+])N(C)C.c1c[n-]cn1
0.829 ± 0.018 mPa·s	CCO [ethanol] + CN(C)C(=[NH2+])N(C)C.c1c[n-]cn1
1.81 ± 0.039 mPa·s	CCCCO [butan-1-ol] + CN(C)C(=[NH2+])N(C)C.c1c[n-]cn1
1.389 ± 0.03 mPa·s	CCCO [propan-1-ol] + CN(C)C(=[NH2+])N(C)C.c1c[n-]cn1

same assay, conditions: 313.15 K; 100 kPa; Liquid; Vibrating tube method; x2 = 0

mass density	SMILES
772.42 ± 0.18 kg/m3	CO [methanol] + CN(C)C(=[NH2+])N(C)C.c1c[n-]cn1
772.15 ± 0.17 kg/m3	CCO [ethanol] + CN(C)C(=[NH2+])N(C)C.c1c[n-]cn1
794.3 ± 0.17 kg/m3	CCCCO [butan-1-ol] + CN(C)C(=[NH2+])N(C)C.c1c[n-]cn1
787.42 ± 0.17 kg/m3	CCCO [propan-1-ol] + CN(C)C(=[NH2+])N(C)C.c1c[n-]cn1

test: not given; settings: 293.15 K; 100 kPa; Liquid; Falling or rolling sphere viscometry

viscosity	SMILES
0.597 ± 0.013 mPa·s	CO [methanol]
8.952 ± 0.2 mPa·s	CN(C)C(=[NH2+])N(C)C.c1c[n-]cn1 [1,1,3,3-tetramethylguanidinium imidazol-1-ide]
2.217 ± 0.047 mPa·s	CCCO [propan-1-ol]
1.186 ± 0.025 mPa·s	CCO [ethanol]
2.918 ± 0.062 mPa·s	CCCCO [butan-1-ol]

same assay, conditions: 293.15 K; 100 kPa; Liquid; Vibrating tube method

mass density	SMILES
791.35 ± 0.17 kg/m3	CO [methanol]
997.25 ± 0.25 kg/m3	CN(C)C(=[NH2+])N(C)C.c1c[n-]cn1 [1,1,3,3-tetramethylguanidinium imidazol-1-ide]
803.75 ± 0.16 kg/m3	CCCO [propan-1-ol]
789.51 ± 0.17 kg/m3	CCO [ethanol]
809.72 ± 0.16 kg/m3	CCCCO [butan-1-ol]

same assay, conditions: 298.15 K; 100 kPa; Liquid; Falling or rolling sphere viscometry

viscosity	SMILES
0.559 ± 0.012 mPa·s	CO [methanol]
7.287 ± 0.16 mPa·s	CN(C)C(=[NH2+])N(C)C.c1c[n-]cn1 [1,1,3,3-tetramethylguanidinium imidazol-1-ide]
1.955 ± 0.042 mPa·s	CCCO [propan-1-ol]
1.083 ± 0.023 mPa·s	CCO [ethanol]
2.566 ± 0.055 mPa·s	CCCCO [butan-1-ol]

same assay, conditions: 298.15 K; 100 kPa; Liquid; Vibrating tube method

mass density	SMILES
786.67 ± 0.18 kg/m3	CO [methanol]
992.8 ± 0.25 kg/m3	CN(C)C(=[NH2+])N(C)C.c1c[n-]cn1 [1,1,3,3-tetramethylguanidinium imidazol-1-ide]
799.71 ± 0.17 kg/m3	CCCO [propan-1-ol]
785.4 ± 0.17 kg/m3	CCO [ethanol]
805.92 ± 0.16 kg/m3	CCCCO [butan-1-ol]

same assay, conditions: 303.15 K; 100 kPa; Liquid; Falling or rolling sphere viscometry

viscosity	SMILES
0.518 ± 0.011 mPa·s	CO [methanol]
6.044 ± 0.13 mPa·s	CN(C)C(=[NH2+])N(C)C.c1c[n-]cn1 [1,1,3,3-tetramethylguanidinium imidazol-1-ide]
1.736 ± 0.037 mPa·s	CCCO [propan-1-ol]
0.987 ± 0.021 mPa·s	CCO [ethanol]
2.272 ± 0.049 mPa·s	CCCCO [butan-1-ol]

same assay, conditions: 303.15 K; 100 kPa; Liquid; Vibrating tube method

mass density	SMILES
781.94 ± 0.18 kg/m3	CO [methanol]
988.35 ± 0.25 kg/m3	CN(C)C(=[NH2+])N(C)C.c1c[n-]cn1 [1,1,3,3-tetramethylguanidinium imidazol-1-ide]
795.65 ± 0.17 kg/m3	CCCO [propan-1-ol]
780.83 ± 0.17 kg/m3	CCO [ethanol]
802.08 ± 0.16 kg/m3	CCCCO [butan-1-ol]

same assay, conditions: 308.15 K; 100 kPa; Liquid; Falling or rolling sphere viscometry

viscosity	SMILES
0.493 ± 0.011 mPa·s	CO [methanol]
5.097 ± 0.11 mPa·s	CN(C)C(=[NH2+])N(C)C.c1c[n-]cn1 [1,1,3,3-tetramethylguanidinium imidazol-1-ide]
1.55 ± 0.033 mPa·s	CCCO [propan-1-ol]
0.903 ± 0.019 mPa·s	CCO [ethanol]
2.024 ± 0.043 mPa·s	CCCCO [butan-1-ol]

same assay, conditions: 308.15 K; 100 kPa; Liquid; Vibrating tube method

mass density	SMILES
777.2 ± 0.18 kg/m3	CO [methanol]
983.9 ± 0.25 kg/m3	CN(C)C(=[NH2+])N(C)C.c1c[n-]cn1 [1,1,3,3-tetramethylguanidinium imidazol-1-ide]
791.56 ± 0.17 kg/m3	CCCO [propan-1-ol]
776.48 ± 0.17 kg/m3	CCO [ethanol]
798.21 ± 0.16 kg/m3	CCCCO [butan-1-ol]

same assay, conditions: 313.15 K; 100 kPa; Liquid; Falling or rolling sphere viscometry

viscosity	SMILES
0.466 ± 0.01 mPa·s	CO [methanol]
4.358 ± 0.096 mPa·s	CN(C)C(=[NH2+])N(C)C.c1c[n-]cn1 [1,1,3,3-tetramethylguanidinium imidazol-1-ide]
1.389 ± 0.03 mPa·s	CCCO [propan-1-ol]
0.829 ± 0.018 mPa·s	CCO [ethanol]
1.81 ± 0.039 mPa·s	CCCCO [butan-1-ol]

same assay, conditions: 313.15 K; 100 kPa; Liquid; Vibrating tube method

mass density	SMILES
772.42 ± 0.18 kg/m3	CO [methanol]
979.46 ± 0.25 kg/m3	CN(C)C(=[NH2+])N(C)C.c1c[n-]cn1 [1,1,3,3-tetramethylguanidinium imidazol-1-ide]
787.42 ± 0.17 kg/m3	CCCO [propan-1-ol]
772.15 ± 0.17 kg/m3	CCO [ethanol]
794.3 ± 0.17 kg/m3	CCCCO [butan-1-ol]
